According to publication PMC10377586 (Biomolecules, 2023):

Experiments:
[1] = biological target: T1, human MAO-B (Homo sapiens, UniProt P27338); experiment: Amplex Red monoamine oxidase assay, MAO-B; format: biochemical; settings: human recombinant MAO-B; read-out: MAO-B IC50 ± SEM
T1 construct: purchased Sigma Aldrich M7441
T1 sequence (P27338 1-520): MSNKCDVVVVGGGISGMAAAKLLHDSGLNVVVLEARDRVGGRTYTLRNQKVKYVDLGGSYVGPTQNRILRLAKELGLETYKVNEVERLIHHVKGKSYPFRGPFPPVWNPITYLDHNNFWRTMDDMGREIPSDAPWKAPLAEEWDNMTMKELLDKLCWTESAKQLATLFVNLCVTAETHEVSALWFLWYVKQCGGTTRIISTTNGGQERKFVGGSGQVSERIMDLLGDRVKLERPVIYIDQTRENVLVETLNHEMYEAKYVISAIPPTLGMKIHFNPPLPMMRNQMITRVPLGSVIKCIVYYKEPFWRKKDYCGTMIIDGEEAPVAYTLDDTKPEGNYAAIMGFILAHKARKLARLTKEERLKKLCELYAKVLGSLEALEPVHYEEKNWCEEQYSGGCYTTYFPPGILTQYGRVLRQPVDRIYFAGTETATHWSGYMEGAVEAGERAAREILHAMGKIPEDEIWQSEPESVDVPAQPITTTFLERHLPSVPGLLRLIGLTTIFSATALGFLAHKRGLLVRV

[2] = biological target: T2, human MAO-A (Homo sapiens, UniProt P21397); experiment: Amplex Red monoamine oxidase assay, MAO-A; format: biochemical; settings: for IC50: human recombinant MAO-A, read-out: MAO-A IC50 ± SEM; for inhibition at 1 µM: read-out: MAO-A % Inhibition ± SEM at 1 µM
T2 construct: purchased Sigma Aldrich M7316
T2 sequence (P21397 1-527): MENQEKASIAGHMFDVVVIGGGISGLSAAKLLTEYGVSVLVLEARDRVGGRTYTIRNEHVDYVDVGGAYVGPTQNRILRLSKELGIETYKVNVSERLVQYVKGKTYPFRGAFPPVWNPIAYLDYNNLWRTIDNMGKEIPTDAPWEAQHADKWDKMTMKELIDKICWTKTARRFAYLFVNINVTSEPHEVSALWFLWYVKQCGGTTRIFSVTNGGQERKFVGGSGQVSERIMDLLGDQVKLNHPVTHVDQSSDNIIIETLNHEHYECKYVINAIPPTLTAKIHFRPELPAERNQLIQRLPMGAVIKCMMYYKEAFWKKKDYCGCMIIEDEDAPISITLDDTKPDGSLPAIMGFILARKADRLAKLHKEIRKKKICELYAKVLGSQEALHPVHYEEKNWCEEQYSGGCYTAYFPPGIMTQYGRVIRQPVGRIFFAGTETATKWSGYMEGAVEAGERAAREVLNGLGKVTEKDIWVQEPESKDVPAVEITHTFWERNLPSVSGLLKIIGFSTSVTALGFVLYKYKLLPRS
Procedure: The final compounds were evaluated in vitro for their human MAO-B (hMAO-B) inhibitory potencies, and selected structures were also investigated for human MAO-A (hMAO-A) inhibition.
Inhibition activity of compounds at MAO enzyme isoforms was measured via a fluorometric method using the Amplex Red Monoamine Oxidase Assay (ThermoFisher Scientific, Waltham, MA, USA #A12214) in a 96-well plates. Human recombinant MAO-B and MAO-A enzymes (Sigma Aldrich, St. Louis, MO, USA #M7441 and #M7316) were used. The assays were conducted as previously described.

[3] = biological target: T3, rat A2A (rA2A) ARs (Rattus norvegicus, UniProt P30543); experiment: Radioligand binding [3H]MSX-2, rat brain striatal membranes; settings: read-out: rA2A [3H]MSX-2 Ki ± SEM
T3 construct: rat brain striatal membrane preparations for A2A AR assays; tissue Pel Freez; host or cells: rat brain striatum membranes
Procedure: (§1) The final compounds were tested in radioligand binding assays to evaluate their affinity for all four ARs subtypes (see Table 2). Rat brain cortical membrane preparations were used as a source of rat A1 (rA1) ARs, and rat brain striatal membrane preparations served as a source of rat A2A (rA2A) ARs. For A2B- and A3AR assays, membrane preparations of Chinese hamster ovary (CHO) cells recombinantly expressing either human A2B (hA2B) or human A3 (hA3) ARs were employed.
(§2) Adenosine receptor radioligand binding assays were performed as previously described using rat brain cortical membrane preparations for A1 and rat brain striatal membrane preparations for A2A AR assays. Frozen rat brains (unstripped) were obtained from Pel Freez, Rogers, AR, USA. For assays at human AR subtypes, cell membranes of CHO cells recombinantly expressing the respective receptor were used. The following compounds were employed as radioligands: A1: [^3H]2-chloro-N^6-cyclopentyladenosine ([^3H]CCPA); A2A: [^3H]3-(3-hydroxypropyl)-7-methyl-8-(m-methoxystyryl)-1-propargylxanthine ([^3H]MSX-2); A2B: [^3H]8-(4-(4-(4-chlorophenyl)piperazine-1-sulfonyl)phenyl)-1-propylxanthine ([^3H]PSB-603); A3: [^3H]phenyl-8-ethyl-4-methyl-(8R)-4,5,7,8-tetrahydro-1H-imidazo[2,1-i]purine-5-one ([^3H]PSB-11). Initially, a single high concentration of compound was tested (1 µM). For potent compounds, full concentration–inhibition curves were determined using six to ten different concentrations of test compound spanning three orders of magnitude. At least three independent experiments were performed. Data were analyzed using GraphPad PRISM program version 4.0 or higher (Graph Pad, San Diego, CA, USA).

[4] = biological target: T4, human A2B (hA2B) ARs (Homo sapiens, UniProt P29275); experiment: Radioligand binding [3H]PSB-603, CHO cell membranes; settings: for Ki: CHO cell membranes, read-out: hA2B [3H]PSB-603 Ki ± SEM; for inhibition at 1 µM: read-out: hA2B [3H]PSB-603 % inhibition ± SEM at 1 µM
T4 construct: expressed in transfected cells; host or cells: CHO cells (membranes)
T4 sequence (P29275 1-332): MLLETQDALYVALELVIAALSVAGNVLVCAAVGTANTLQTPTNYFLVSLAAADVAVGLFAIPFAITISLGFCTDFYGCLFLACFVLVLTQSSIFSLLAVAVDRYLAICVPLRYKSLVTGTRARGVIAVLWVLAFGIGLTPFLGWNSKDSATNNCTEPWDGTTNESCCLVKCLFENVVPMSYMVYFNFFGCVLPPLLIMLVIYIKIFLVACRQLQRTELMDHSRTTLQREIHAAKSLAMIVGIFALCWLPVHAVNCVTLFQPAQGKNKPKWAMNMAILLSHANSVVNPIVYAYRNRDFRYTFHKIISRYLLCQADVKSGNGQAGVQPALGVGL
Procedure: as §1, §2

T3 sequence (P30543 whole entry): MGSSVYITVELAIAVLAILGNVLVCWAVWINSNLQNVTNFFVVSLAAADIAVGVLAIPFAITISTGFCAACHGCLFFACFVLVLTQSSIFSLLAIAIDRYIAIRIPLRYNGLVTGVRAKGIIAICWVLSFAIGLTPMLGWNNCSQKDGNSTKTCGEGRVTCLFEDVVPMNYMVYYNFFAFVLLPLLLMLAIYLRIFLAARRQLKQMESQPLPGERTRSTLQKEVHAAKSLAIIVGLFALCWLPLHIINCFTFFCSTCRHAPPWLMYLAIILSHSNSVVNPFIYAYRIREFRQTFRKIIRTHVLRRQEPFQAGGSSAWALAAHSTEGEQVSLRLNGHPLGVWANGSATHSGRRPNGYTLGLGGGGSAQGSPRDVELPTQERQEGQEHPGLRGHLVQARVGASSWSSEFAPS

| Structure (SMILES) | IC50 [1] [nM] | IC50 [2] [nM] | inhibition at 1 µM [2] [%] | Ki [3] [nM] | Ki [4] [nM] | inhibition at 1 µM [4] [%] |
| --- | --- | --- | --- | --- | --- | --- |
| CC(C)n1c(NCCc2ccc(O)c(O)c2)nc2c1c(=O)n(C)c(=O)n2C [Compound 11d, 8-((3,4-Dihydroxyphenethyl)amino)-7-isopropyl-1,3-dimethyl-3,7-dihydro-1H-purine-2,6-dione] | 126 ± 49 | ≥ 1000 | 47 | 1150 ± 140 | > 1000 | 13 |
| Cn1c(=O)c2c(nc(NCCc3ccc(O)c(O)c3)n2CCc2ccccc2)n(C)c1=O [Compound 11k, 8-((3,4-Dihydroxyphenethyl)amino)-1,3-dimethyl-7-phenethyl-3,7-dihydro-1H-purine-2,6-dione] | 73.5 ± 7.5 | 256 ± 93 | – | ≥ 10000 | > 1000 | -9 |
| CCC(C)n1c(NCCc2ccc(O)c(O)c2)nc2c1c(=O)n(C)c(=O)n2C (centres unmarked) [Compound 11g, 7-(Sec-butyl)-8-((3,4-dihydroxyphenethyl)amino)-1,3-dimethyl-3,7-dihydro-1H-purine-2,6-dione] | 197 ± 57 | > 1000 | 44 | 8980 ± 150 | > 1000 | -5 |
